US20190352341A1, “MODIFIED PEPTIDES AND THEIR USE FOR TREATING SYSTEMIC LUPUS ERYTHEMATOSUS” (IMMUPHARMA FRANCE SA, priority 2018, published 2019)
Several values for one entry are separate records, joined by “and”; a condition that tells them apart may be missing. Identical values can stand only once. Numbered stars: 1 amine (or outer) side, 2 acyl side, 3 side chain; on linkers, the order of the positions; unused ones are H or OH. Square brackets hold non-standard residues; d marks the D form. Peptide text beside a SMILES is read from it. ξ: configuration not given here. X1 = CSCC[C@H](NC(=N)[C@H](Cc1c[nH]cn1)N[*:1])C(=O)[*:2]; pS = N[C@@H](COP(=O)(O)O)C(=O)O; Ile(3ξ) = CCC(C)[C@H](N)C(=O)O

Experiments:
[1] = tested on: peripheral T cells from lupus patients; conditions: cited from earlier work
[2] = tested on: CD4+ T splenocytes; test: Collagen-induced arthritis (CIA) mouse model, ex vivo T splenocyte proliferation; type: in vivo; conditions: DBA/1 CIA mice, peptide i.v. day −1, +7, +14, +20; 100 μg CII/mL, CFSE assay by FACS
Method: Next, P140 peptide was administered in a model of mice that develop a RA-like disease (we anticipated to use this mouse model as a negative control of MRL/lpr-lupus prone mice). This model, called collagen-induced arthritis (CIA) mouse model, is the most commonly studied autoimmune model of RA. In this model, autoimmune arthritis is induced by immunizing DBA/1 mice with an emulsion of complete Freund's adjuvant (CFA) and type II collagen (CII), and typically, the first signs of arthritis appear in 21-28 days after immunization (Brand et al., 2007). CIA shares several pathological features with human RA, and CII is a major protein in cartilage, the target tissue of RA. Pathological features include synovial hyperplasia, mononuclear cell infiltration, and cartilage degradation. Susceptibility in these mice is linked to the expression of specific MHC class II genes, DBA/1 have H-2^q haplotype.
P140 peptide was thus administrated intravenously to DBA/1 mice at day −1, +7, +14 and +20 in a setting close to the one we used in MRL/lpr mice ([…]). CII in CFA was injected at days+1 and +21 (200 μg, intradermal route). Mouse weight and their clinical score were followed using very classical procedure. Biological parameters were also evaluated (i.e. T cell response, antibody response, joint histology, etc).

[3] = tested on: Balb/c mice; test: 31-day HDM-induced asthma model, airway response to methacholine (Flexivent); type: in vivo, mouse; conditions: for Crs / Ers / Rrs: individual mice
Method: The aim of this study was to evaluate the effect of the P140 phosphopeptide administered systemically (intravenously) in a 31-day model of HDM-induced asthma in mice. The P140 phosphopeptide was solubilized in sterile water (Braun) and 10× concentrate sterile saline was added to adjust osmolarity to 300 mosm. Osmolarity was controlled with a micro osmometer (Löser, type 15) and validated (303 mosm). The P140 phosphopeptide was used in vivo at the dose of 4 mg/kg by intravenous (i.v.) routes. Control animals received equivalent volumes (2 ml/kg) of saline (Table 8).
Nine-week-old male Balb/c mice were sensitized by intranasal (i.n.) administration of HDM extract (Stallergenes): 1 μg in 25 μl saline on days 0, 1, 2, 3, 4, and 10 μg on days 14 and 21. Mice were challenged by i.n. administration of HDM (1 μg) and/or saline on days 28, 29 and 30. Mice were treated by i.v. injection (2 ml/kg) of P140 or solvent on day 25 (see FIG. 14).
Airway response to Methacholine (Flexivent®). On day 31, airway responses to PBS then methacholine were assessed using a forced oscillation technique (Flexivent®, SCIREQ, Montreal, Canada) as described (Daubeuf et al, Bioprotocol, 645, 2013). Mice were anesthetized with an intraperitoneal injection of xylasine (Rompun®; 1 mg/kg), followed fifteen minutes later by an intraperitoneal injection of pentobarbital sodium (3.64 mg/Kg). The trachea was exposed and an 18-gauge metal needle was inserted into the trachea. Airways were connected to a computer-controlled small animal ventilator, and quasi-sinusoidally ventilated with a tidal volume of 10 ml/Kg at a frequency of 150 breaths/min and a positive end-expiratory pressure of 2 cm H2O to achieve a mean respiratory volume close to that of spontaneous breathing. After baseline measurement, each mouse was challenged for 10 sec with an aerosol of PBS generated with an in-line nebulizer and administered directly through the ventilator. Then, aerosolized methacholine (MCh) at 50 mg/ml was administered for 10 sec. The effect of methacholine was calculated as the peak response, i.e. the mean of the three maximal values integrated for calculation of airway resistance (R, cm H20·s·mL^−1), elastance (E, cm H20·mL^−1) and compliance (C, mL·cm H20^−1).
All mice were sensitized to HDM on days 0, 1, 2, 3, 4, 14, 21, and challenged either with saline ([…]) or HDM (challenge with allergen). Results are presented as means±SEM. Differences between groups were tested for statistical significance using Student's t test for inflammatory cells and a two-way ANOVA followed by Bonferroni post-test for airway responses.

[4] = tested on: Lewis rats; test: Chronic-EAN rat model for CIDP; type: in vivo; conditions: P140 100 μg/rat i.p., vs untreated rats
Method: Male Lewis rats, 7-8 weeks old, weighing 250-270 g, purchased from Charles River (Domaine des Oncins, L'Arbresle, France) were used. To induce chronic-EAN (CIDP), rats were immunized with S-palm-P0(180-199) peptide by subcutaneous injection at the base of the tail of 200 μL of an inoculum containing 200 μg of peptide (Ac(palm)KRGRQTPVLYAMLDHSRS), and 0.5 mg of Mycobacterium tuberculosis (strain H37 RA, Difco, Detroit, Mich., USA) emulsified in 100 μL of saline solution and 100 μL of Freund's incomplete adjuvant (SIGMA-Aldrich, St-Quentin Fallavier, France).
Body weight and clinical scores are assessed daily until 60 days post-immunization (dpi). Severity of paresis is graded as follows: 0=no illness; 1=flaccid tail; 2=moderate paraparesis; 3=severe paraparesis; 4=tetraparesis; 5=death.
100 μg/rat P140 peptide in 500 μL water/saline (1:10) were intraperitoneally injected at 5, 7, 9, 13 dpi and 3 times per week from 22 dpi until the end of the study.

[5] = tested on: C57BL/6 mice; test: DSS-induced mouse model of colonic inflammation; type: in vivo
Text: Normal mice (C57BL/6; 7 week-old; males) have received the P140 peptide ([…], iv route; 10 mice) or saline only (control group; 10 mice) at days −2 and −1. At day 0, dextran sodium sulfate (DSS; 2-3%) was administrated to induce the disease.
Animals were examined every day for body weight loss, stool consistency, diarrhea, and blood in the feces. The animals were sacrificed around day 14 or at any time if they are very sick (loss >25% body weight). Statistics: Mann-Whitney (exact)

[6] = HDM-challenged (HDM + P140), first of two unheaded values (presumably PBS)
[7] = HDM-challenged (HDM + P140), second of two unheaded values (presumably MCh 50 mg/mL)
[8] = chronic asthma (saline-challenged), methacholine 50 mg/ml, P140 i.v. 4 mg/kg day 25
[9] = saline-challenged (chronic asthma), first of two unheaded values (presumably PBS)
[10] = saline-challenged (chronic asthma), second of two unheaded values (presumably MCh 50 mg/mL)
[11] = P140 iv at days −2 and −1, DSS from day 0, vs saline group

CCC(C)[C@H](NC(=O)[C@H](Cc1ccccc1)NC(=O)[C@H](C)NC(=O)[C@H](Cc1ccc(O)cc1)NC(=O)CNC(=O)[C@H](CCCNC(=N)N)NC(=O)[C@@H]1CCCN1C(=O)[C@H](CCCCN)NC(=O)CNC(=O)[C@H](COP(=O)(O)O)NC(=O)[C@H](CCCNC(=N)N)NC(=O)[C@H](CCCCN)NC(=O)[C@H](CO)NC(=O)[C@H](Cc1ccc(O)cc1)NC(=O)[C@@H](NC(=O)[C@H](CCSC)NC(=N)[C@H](Cc1c[nH]cn1)NC(=O)[C@@H](NC(=O)[C@@H](N)CCCNC(=N)N)C(C)CC)C(C)C)C(=O)N[C@@H](CCC(=O)O)C(=O)N[C@@H](Cc1ccc(O)cc1)C(=O)O (stereo partly shown) [Compound P140] (H-R[Ile(3ξ)][X1]VYSKR[pS]GKPRGYAF[Ile(3ξ)]EY-OH)
Proliferation of peripheral T cells from lupus patients ([1]; ex vivo (Monneaux et al., 2005)): does not induce proliferation | Secretion of regulatory cytokine IL-10 in cell cultures ([1]; ex vivo, T cells from lupus patients (Monneaux et al., 2005)): high levels | CD4+ T splenocytes proliferation ex vivo in the presence of CII [2]: strongly diminished | Crs [3, 6]: 0.0554 mL/cmH2O and 0.0514 mL/cmH2O and 0.0528 mL/cmH2O and 0.0566 mL/cmH2O and 0.0492 mL/cmH2O and 0.0458 mL/cmH2O and 0.0552 mL/cmH2O and 0.0589 mL/cmH2O | Ers [3, 6]: 18.0582 cmH2O/mL and 19.4433 cmH2O/mL and 18.9515 cmH2O/mL and 17.6781 cmH2O/mL and 20.3326 cmH2O/mL and 21.8367 cmH2O/mL and 18.1106 cmH2O/mL and 16.9723 cmH2O/mL | Rrs [3, 6]: 0.6405 cmH2O · s/mL and 0.6092 cmH2O · s/mL and 0.7972 cmH2O · s/mL and 0.5185 cmH2O · s/mL and 0.6804 cmH2O · s/mL and 0.6365 cmH2O · s/mL and 0.4744 cmH2O · s/mL and 0.5456 cmH2O · s/mL | Crs [3, 7]: 0.0146 mL/cmH2O and 0.0075 mL/cmH2O and 0.0062 mL/cmH2O and 0.0065 mL/cmH2O and 0.0101 mL/cmH2O and 0.0060 mL/cmH2O and 0.0138 mL/cmH2O and 0.0081 mL/cmH2O | Ers [3, 7]: 79.8018 cmH2O/mL and 148.4985 cmH2O/mL and 188.1151 cmH2O/mL and 219.9720 cmH2O/mL and 125.7688 cmH2O/mL and 173.4582 cmH2O/mL and 72.6033 cmH2O/mL and 131.8035 cmH2O/mL | Rrs [3, 7]: 5.6421 cmH2O · s/mL and 10.3886 cmH2O · s/mL and 11.9654 cmH2O · s/mL and 10.5419 cmH2O · s/mL and 8.8810 cmH2O · s/mL and 13.0087 cmH2O · s/mL and 7.0705 cmH2O · s/mL and 9.7688 cmH2O · s/mL | Airway resistance, elastance or compliance ([3]; allergen (HDM)-challenged mice, vs solvent group): no effect | Airway compliance, change vs solvent group [3, 8]: +115% | Elastance, change vs solvent group [3, 8]: −65% | Airway resistance, change vs solvent group ([3]; chronic asthma (saline-challenged), methacholine 50 mg/ml, P140 i.v. 4 mg/kg day 25, non-significant): −42% | Crs [3, 9]: 0.0545 mL/cmH2O and 0.0498 mL/cmH2O and 0.0569 mL/cmH2O and 0.0541 mL/cmH2O and 0.0650 mL/cmH2O | Ers [3, 9]: 18.3671 cmH2O/mL and 20.0811 cmH2O/mL and 17.5777 cmH2O/mL and 18.4893 cmH2O/mL and 15.3975 cmH2O/mL | Rrs [3, 9]: 0.5590 cmH2O · s/mL and 0.8945 cmH2O · s/mL and 0.5926 cmH2O · s/mL and 0.8074 cmH2O · s/mL and 0.4418 cmH2O · s/mL | Crs [3, 10]: 0.0304 mL/cmH2O and 0.0132 mL/cmH2O and 0.0380 mL/cmH2O and 0.0238 mL/cmH2O and 0.0370 mL/cmH2O | Ers [3, 10]: 33.3720 cmH2O/mL and 84.9688 cmH2O/mL and 26.3200 cmH2O/mL and 42.4174 cmH2O/mL and 28.6047 cmH2O/mL | Rrs [3, 10]: 4.1067 cmH2O · s/mL and 9.4002 cmH2O · s/mL and 2.2229 cmH2O · s/mL and 4.0926 cmH2O · s/mL and 2.1844 cmH2O · s/mL | Baseline airway resistance, elastance and compliance after PBS inhalation ([3]; saline-challenged mice, P140 i.v. 4 mg/kg day 25, vs solvent-treated mice): no effect on any parameter | Chronicity of the disease [4]: seems abolish the chronicity of the disease | Maximal clinical scores [4]: decreased the maximal clinical scores | Onset of the disease [4]: delayed the onset of the disease | Weight loss during the disease course [4]: less important | Body weight [5, 11]: No difference | Colon size [5, 11]: significant increase | DAI (disease activity index) [5, 11]: Little difference | Day at which blood appeared in the feces ([5]; control groups day +6): +8 day
